Measured values from ChEMBL document CHEMBL3507680, “University of Dundee, Gates Library screen for HepG2 cell viability”.

Assay: Human HepG2 cell viability assay in 384 well format
Assay type: toxicity, cell-based
Set-up: dose 125 nL, time 70.5 hour; concentration not given beside the values
Conditions: HepG2 cells, read-out: Inhibition

Compound | cytotoxicity at 70.5 h [%]
CC(O)c1cnn(-c2ccccc2)c1 (centres undefined) | 45.1
Cc1ncc(C(=O)N2CCCC2c2c(C)nn(C)c2C)s1 (centres undefined) | -2.56
C[C@H](O)c1cnn(-c2ccccc2)c1 | -1.87
Cc1cc(C)c(C(=O)N(C)CCN(C)C(=O)OC(C)(C)C)[nH]1 | 6.57
Cc1cc(C(=O)N(C)CCN(C)C(=O)OC(C)(C)C)oc1C | -2.24
Cc1ccc(C(C)N(C)C(=O)c2ccc(=O)n(C)c2)s1 (centres undefined) | -0.24
CCc1ccsc1C(=O)NC(C#N)CC(C)C (centres undefined) | -2.59
CCN1CCCC(NC(=O)c2ccc(C)[nH]c2=O)C1 (centres undefined) | -8.86
Cc1ccc(C(=O)NC2CCN(C(C)C)C2)c(=O)[nH]1 (centres undefined) | -14.4
Cc1ccc(C(=O)NC2CCCN(C)C2)c(=O)[nH]1 (centres undefined) | -12.5
Cc1nn(C)c(C)c1S(=O)(=O)NCC1(C(N)=O)CCOCC1 | -11.5
CC(C(=O)NCC(C)(C)c1ccc2c(c1)OCO2)n1ccnc1 (centres undefined) | -1.09
CCOCCN1CCN(c2ccc(C#N)cn2)CC1 | -9.92
Cc1nc(NCc2nncn2C2CC2)c2c(CC(C)C)csc2n1 | 20
Cc1cc(C)c(NC(=O)Nc2cnn(CC(O)CN(C)C)c2)c(C)c1 (centres undefined) | -13.2
N#Cc1ccc(Cl)cc1NCC1CC1 | -5.4
Cc1nc(COC(=O)c2cccc3c2OCCO3)cs1 | -11.2
CS(=O)(=O)N1CCC(CNc2c(Cl)cccc2C#N)CC1 | -1.91
Cc1cc(C)c(CNc2cnn(CC(O)CN(C)C)c2)c(C)c1 (centres undefined) | -11.8
N#CC1COCCN1C(=O)c1ccc2[nH]ccc2c1 (centres undefined) | 0.401
CCOCCN1CCN(c2ccc(C#N)cn2)CC1CC (centres undefined) | 1.12
CCOCCN1CCN(c2ncccc2C#N)CC1CC (centres undefined) | -3.73
Cc1oc(-c2ccco2)nc1CN1CCc2cnc(C(C)C)nc2C1 | -12
CC(NCc1cccc(COC2CCCC2)c1)c1cnn(C)c1 (centres undefined) | -3.04

Compound | cytotoxicity at 70.5 h [%]
O=C(NC1CC1)c1ccc(SCc2cscn2)cc1 | -9.79
Cc1noc(C(C)Nc2ccc3oc(C)nc3c2)n1 (centres undefined) | 11.9
N#Cc1ccccc1CN1CCc2sccc2C1 | -8.96
CC(CNC(=O)c1cccnc1O)Cn1cccn1 (centres undefined) | -7.01
Cc1ccc(CNC(=O)Nc2nnc(C3CC3)s2)n1C | -0.672
CCC(C#N)NC(=O)CCNC(=O)C(C)(C)C (centres undefined) | 0.625
COc1cc(Cl)ccc1C(=O)NCc1n[nH]c(C)n1 | 1.46
Cc1ccccc1C(C#N)NC(=O)c1cccc2c1OCCO2 (centres undefined) | 11
Cc1[nH]nc2ncc(C(=O)N3CCN(CC(O)C(C)(C)C)CC3)cc12 (centres undefined) | -1.93
COC(C)c1noc(CN(C)c2nccnc2C#N)n1 (centres undefined) | 1.72
CC(CNS(N)(=O)=O)Oc1ccc(Cl)cc1 (centres undefined) | 1.53
CN(C)c1nc(CNC(=O)NC2CCc3ccccc32)cs1 (centres undefined) | -0.66
c1ccc2oc(N3CCn4c(nnc4C4CC4)C3)nc2c1 | -2.1
CC(C)N1CCC(O)(CNC(=O)CC2OCCc3ccccc32)CC1 (centres undefined) | 4.01
CN(c1nc(Cn2cc(Br)ccc2=O)cs1)C1CC1 | -4.85
O=C(CN1CCCS1(=O)=O)Nc1ccc(OC2CCCC2)cc1 | -0.244
CSc1c[nH]nc1NS(=O)(=O)c1cc(F)ccc1Cl | -0.455
COC(C)c1noc(CN(C)c2ncccn2)n1 (centres undefined) | -1.92
CN(Cc1ccc(C(=O)O)cc1)C(=O)c1sccc1OC(F)F | 3.59
CC(C)c1nnc2n1CCN(c1nc3ccccc3o1)C2 | -10.1
CN(c1nc(Cn2cnccc2=O)cs1)C1CC1 | -4.18
CS(=O)(=O)C1(CNCc2cccc(-n3cccn3)c2)CCOCC1 | 12.5
CCn1cnnc1CCNS(=O)(=O)N1CCCC1c1ccco1 (centres undefined) | -9.13
CCc1noc(C(C)Sc2nnc(C3CC3)n2CC(N)=O)n1 (centres undefined) | -0.541

Compound | cytotoxicity at 70.5 h [%]
O=C(NCC1CCS(=O)(=O)C1)N(Cc1ccccn1)C1CC1 (centres undefined) | -6.34
O=C(NCc1cc(-c2ccccc2)no1)NC1CCCCNC1=O (centres undefined) | 4.05
O=C(NCC(=O)N1CCCCC1)c1sccc1C1CC1 | 7.84
COc1ccccc1C(C)(C)NC(=O)c1cc(NC(C)=O)ccc1F | -6.53
CCc1cc(=O)[nH]c(-c2ccc(NCCC(C)O)nc2)n1 (centres undefined) | -5.98
Cc1nnc(N2CCc3cnc(C(C)C)nc3C2)c(C#N)c1C | 1.1
CCOC(=O)C1(O)CCN(C(=O)Nc2cccc(F)c2)CC1 | 4.4
Cc1occc1CNc1ncccc1S(N)(=O)=O | -3.76
CC(C)c1nnc(CN2CC(n3cccn3)Cc3ccccc32)o1 (centres undefined) | -4.11
CCn1cnnc1CNS(=O)(=O)N1CCCC1c1ccc(C)o1 (centres undefined) | -4.31
O=C(NCC(=O)N1CCN(c2ccccc2)CC1)c1sccc1C1CC1 | -2.46
Cn1cc(C2CCCN2C(=O)Cc2coc(-c3ccccc3)n2)cn1 (centres undefined) | -7.27
O=C(c1ccccc1F)N1CCN(CCCn2cncn2)CC1 | -5.46
Cc1cc(NC(=O)N2CCCC(CO)C2)nn1-c1ccccc1Cl (centres undefined) | -1.91
Cc1ccc(-c2cc(CNCCn3cc(C)cn3)on2)cc1 | -1.34
Cc1ccoc1C(=O)NC(CC(C)C)C(=O)N1CCC(CO)CC1 (centres undefined) | 27.4
CNC(=O)CN1CCN(C(=O)Nc2ccc(C)s2)CC1 | -1.2
Cn1c(NCCC(=O)N2CCCC2)c(C#N)c(=O)n(C)c1=O | 3.58
Cn1c(NCCN2CCCCCC2)c(C#N)c(=O)n(C)c1=O | -7.25
CCNc1c(C#N)c(=O)n(C)c(=O)n1C | -8.97
CC(C)NC(=O)C(C(C)C)n1cnc2cc(F)c(F)cc21 (centres undefined) | -7.62
CC(=O)N1CCN(CCNc2snc(Cl)c2C#N)CC1 | -5.16
CC(=O)NC1(C(=O)N2CCCN(c3cccnn3)CC2)CCCCC1 | -5.29
CC(Nc1ccc(CN2CCCC2=O)cc1)c1ccc(C#N)cc1 (centres undefined) | -5.25

Compound | cytotoxicity at 70.5 h [%]
CCC(=O)NCC(=O)Nc1ncc(I)cc1C | 0.64
Cc1ccc(NC(=O)N2CCN(C(=O)CC3CCCC3)CC2)s1 | -10.2
Cc1noc(C)c1NS(=O)(=O)c1cc(Cl)c(Cl)c(C(=O)O)c1 | -9.2
O=C(N1CCc2ccccc2CC1)C1(O)Cc2ccccc2C1 | -2.64
CC(C)C(C(=O)NCC1CC1)n1cnc2cc(F)c(F)cc21 (centres undefined) | -1.42
CC(C)C(C(=O)NC1CCOCC1)n1cnc2cc(F)c(F)cc21 (centres undefined) | 1.78
Clc1cccnc1N1CCC(NCc2cccc3cn[nH]c23)C1 (centres undefined) | -4.87
O=C(CNC(=O)C1CCCC1)NCc1cnn(-c2ccc(F)cc2F)c1 | -1.74
CCOC(C)C(=O)Nc1ccc2c(ccn2CC)c1 (centres undefined) | 1.36
O=C(NCc1cnn(-c2ccc(F)cc2F)c1)C1CCCO1 (centres undefined) | -1.57
Fc1ccc(C2(NCc3noc(C4CC4)n3)CCC2)cc1 | 8.34
CC(NCc1ccccc1CN1CCCC1=O)c1ccc(C#N)cc1 (centres undefined) | 4.5
CN1CCC(N2CCOC3(CCCC3)C2)C1=O (centres undefined) | 5.41
O=C(NCCCN1CCC(OC2CCCCC2)CC1)C1CCCC1 | -0.377
CNC(=O)CSC(C)c1ccc(Br)cc1 (centres undefined) | 2.63
CN(C)C(=O)CS(=O)(=O)Cc1ccn(-c2cccc(F)c2)n1 | -3.31
CN(C1CCCCC1)S(=O)(=O)NC1CCN(c2ncccn2)CC1 | -7.52
CC1CN(c2ncnc3cccc(F)c23)CCO1 (centres undefined) | 10.6
O=C1CC(N(C(=O)c2ccc(-n3cccc3)cc2)C2CC2)C(=O)N1 (centres undefined) | -4.68
CC(C)(C(=O)NCCCC(N)=O)c1cccc(Br)c1 | -8.19
O=C(Nc1cccc(F)c1)C1CCN(Cc2noc(C3CC3)n2)CC1 | -13.9
O=C(Nc1cccc(F)c1)N1CCN(Cc2noc(C3CC3)n2)CC1 | -13.8
Cc1noc(C)c1CC(=O)N1CCCC(c2noc(C(C)C)n2)C1 (centres undefined) | -9.31
CCn1nc(C)c(CNC(=O)NCC(C)(O)c2ccc(C)o2)c1C (centres undefined) | -13.6

Compound | cytotoxicity at 70.5 h [%]
CC1COc2ccccc2N1C(=O)c1ccnc(-n2cncn2)c1 (centres undefined) | 9.86
CCn1ccnc1S(=O)(=O)Cc1c(C)cc(C)c(C(C)=O)c1C | -6.82
CC(CCc1ccccc1F)C(=O)NS(C)(=O)=O (centres undefined) | -8.18
CCn1nc(C)c(CNC(=O)NCC(C)(O)c2ccco2)c1C (centres undefined) | -1.92
O=C(Nc1cnn(Cc2ccc(Cl)cc2)c1)N[C@@H]1C=C[C@H](CO)C1 | -7.72
Cc1ccn(-c2ccc(N3CCN(Cc4ccccn4)CC3)nn2)n1 | -7.77
CC1CN(S(=O)(=O)c2cc(S(C)(=O)=O)ccc2Br)c2cccnc2O1 (centres undefined) | 1.23
CC(C)c1nc(C2CCCN(C(=O)CS(=O)(=O)C(C)C)C2)no1 (centres undefined) | -7.77
CC1CN(c2ncnc3ccccc23)CCO1 (centres undefined) | 10
Cc1ccc(CN2CCOC(C)(c3cnn(C)c3)C2)cc1 (centres undefined) | -2.83
CCOCCS(=O)(=O)Cc1ccn(-c2cccc(F)c2)n1 | -10.1
CCOC(=O)C1CCN(C(=O)CN2CCCC2c2ccsc2)CC1 (centres undefined) | -3.85
COCCn1cc(C(=O)N2CCCC2c2cc(C)on2)c2ccccc21 (centres undefined) | 1.11
O=C(Nc1ccccc1)C1CCN(C(=O)COc2ccccc2F)CC1 | 7.69
O=C(NCC(O)c1ccc(F)cc1F)c1cccc(F)c1 (centres undefined) | -2.46
Cc1nc(NC(=O)C(C)N2CCN(c3ncccn3)CC2)sc1C (centres undefined) | -8.18
O=C(NCCNc1cnccn1)N1CC=C(c2ccccc2)CC1 | -8.49
COc1c(C)cnc(CNC(=O)c2cnc3onc(C)c3c2)c1C | 12.5
CN(C)CCOc1ccc(CNC(=O)c2cccc3[nH]ncc23)cc1 | 9.57
Cc1noc(C)c1CCC(=O)N1CCCC(n2ccnc2C)C1 (centres undefined) | 3.81
CC(C)Nc1cccc(C(=O)NCC(O)c2ccc(F)cc2F)c1 (centres undefined) | -1.19
CC(C)c1nn(C)c(Cl)c1CNCC(=O)N1CCN(C)CC1 | -4.93
Fc1ccc(OCCCNC2=NCCN2)cc1 | -14.3
